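Following 48 hours of exposure in 96-well plates, responses at five concentrations were used to interpolate endpoints linearly. Definition used: TGI = concentration required for complete inhibition of growth.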
Legend:
Assay in all cases: NCI tumour cell line growth inhibition, 48 h
[1] = test system: SK-MEL-28 melanoma
[2] = test system: SK-OV-3 ovarian
[3] = test system: IGROV1 ovarian
[4] = test system: M19-MEL melanoma
[5] = test system: NCI-H460 lung
[6] = test system: SK-MEL-2 melanoma
[7] = test system: NCI-H23 lung
[8] = test system: A549 NSCLC
[9] = test system: HCC-2998 colon
[10] = test system: KM12 colon
[11] = test system: SF-295 CNS
[12] = test system: HOP-18 NSCLC
[13] = test system: HCT-116 colon
[14] = test system: LXFL 529 NSCLC
[15] = test system: ACHN renal
[16] = test system: DMS 114 small cell lung
[17] = test system: HT29 colon
[18] = test system: K-562 leukemia
[19] = test system: OVCAR-4 ovarian
[20] = test system: COLO 205 colon
[21] = test system: A498 renal
[22] = test system: OVCAR-8 ovarian
[23] = test system: UO-31 renal
[24] = test system: SNB-78 CNS
[25] = test system: EKVX NSCLC
[26] = test system: CCRF-CEM leukemia
[27] = test system: SF-539 CNS
[28] = test system: KM20L2 colon
[29] = test system: HOP-92 NSCLC
[30] = test system: OVCAR-3 ovarian
[31] = test system: RPMI-8226 leukemia
[32] = test system: DMS 273 small cell lung
[33] = test system: UACC-62 melanoma
[34] = test system: SN12C renal
[35] = test system: SK-MEL-5 melanoma
[36] = test system: 786-0 renal
[37] = test system: SNB-19 CNS
[38] = test system: SW-620 colon
[39] = test system: TK-10 renal
[40] = test system: MOLT-4 leukemia
[41] = test system: HCT-15 colon
[42] = test system: DLD-1 colon
[43] = test system: HL-60(TB) leukemia
[44] = test system: M14 melanoma
[45] = test system: SNB-75 CNS
[46] = test system: NCI-H522 lung
[47] = test system: UACC-257 melanoma
[48] = test system: SF-268 CNS
[49] = test system: HOP-62 NSCLC
[50] = test system: OVCAR-5 ovarian
[51] = test system: MALME-3M melanoma
[52] = test system: CAKI-1 renal
[53] = test system: NCI-H226 lung
[54] = test system: LOX IMVI melanoma
[55] = test system: U251 CNS
[56] = test system: SR leukemia
[57] = test system: XF 498 CNS
[58] = test system: RXF 393 renal

O=C1/C(=C/c2cc(O)c(O)c(O)c2)Oc2cc(O)cc(OC3OC(CO)C(O)C(O)C3O)c21 (stereo unspecified)
TGI [1]: > 100 µM
TGI [2]: > 100 µM
TGI [3]: > 100 µM
TGI [4]: 37.1 µM
TGI [5]: 34 µM
TGI [6]: 47.7 µM
TGI [7]: 80.9 µM
TGI [8]: > 100 µM
TGI [9]: > 100 µM
TGI [10]: > 100 µM
TGI [11]: 34.3 µM
TGI [12]: > 100 µM
TGI [13]: 31.1 µM
TGI [14]: 28 µM
TGI [15]: 25.7 µM
TGI [16]: > 100 µM
TGI [17]: 59.5 µM
TGI [18]: 34.9 µM
TGI [19]: 6.49 µM
TGI [20]: 54.1 µM
TGI [21]: > 100 µM
TGI [22]: 35.7 µM
TGI [23]: > 100 µM
TGI [24]: 68.5 µM
TGI [25]: > 100 µM
TGI [26]: 44.5 µM
TGI [27]: > 100 µM
TGI [28]: 74 µM
TGI [29]: 38.7 µM
TGI [30]: 31.4 µM
TGI [31]: 67.9 µM
TGI [32]: 3.67 µM
TGI [33]: 38.8 µM
TGI [34]: 33 µM
TGI [35]: 31 µM
TGI [36]: > 100 µM
TGI [37]: > 100 µM
TGI [38]: 58.3 µM
TGI [39]: > 100 µM
TGI [40]: 43.4 µM
TGI [41]: 57.5 µM
TGI [42]: 42.4 µM
TGI [43]: 43.1 µM
TGI [44]: 50.4 µM
TGI [45]: > 100 µM

CC(C)C(Sc1nc(-c2ccccc2)c(-c2ccccc2)[nH]1)C(=O)N/N=C/c1ccc(Cl)cc1 (stereo unspecified)
TGI [1]: 45.2 µM
TGI [2]: 67 µM
TGI [46]: 41.7 µM
TGI [3]: 48.8 µM
TGI [4]: 34.6 µM
TGI [5]: 52.8 µM
TGI [47]: 53.7 µM
TGI [6]: 36.5 µM
TGI [7]: 52.8 µM
TGI [8]: 82.3 µM
TGI [10]: 44.7 µM
TGI [48]: 57.6 µM
TGI [11]: 47.5 µM
TGI [49]: 42.5 µM
TGI [13]: 29.4 µM
TGI [14]: 82.8 µM
TGI [15]: > 100 µM
TGI [16]: 71.5 µM
TGI [17]: 36.9 µM
TGI [19]: 98.4 µM
TGI [50]: 52.4 µM
TGI [20]: 35.5 µM
TGI [21]: 43.2 µM
TGI [22]: 53.6 µM
TGI [23]: 47.8 µM
TGI [24]: > 100 µM
TGI [25]: 67.6 µM
TGI [51]: 47.7 µM
TGI [26]: 85.4 µM
TGI [52]: 69.9 µM
TGI [27]: 36.4 µM
TGI [28]: 46.2 µM
TGI [29]: 54.2 µM
TGI [30]: 35.5 µM
TGI [53]: 41.5 µM
TGI [31]: 65.4 µM
TGI [54]: 28.9 µM
TGI [32]: 39.6 µM
TGI [33]: 40.1 µM
TGI [34]: 36.3 µM
TGI [35]: 30.5 µM
TGI [36]: 40.8 µM
TGI [37]: > 100 µM
TGI [38]: 68.2 µM
TGI [39]: > 100 µM
TGI [41]: 59.3 µM
TGI [55]: 39.5 µM
TGI [42]: > 100 µM
TGI [43]: 56.6 µM
TGI [56]: > 100 µM
TGI [44]: 33.7 µM
TGI [45]: 67.6 µM

COC1CCC(O)C(CO)O1 (stereo unspecified)
TGI [1]: > 100 µM
TGI [2]: > 100 µM
TGI [46]: 26.9 µM
TGI [3]: 61.2 µM
TGI [4]: > 100 µM
TGI [5]: > 100 µM
TGI [47]: > 100 µM
TGI [6]: > 100 µM
TGI [7]: > 100 µM
TGI [8]: > 100 µM
TGI [9]: > 100 µM
TGI [10]: > 100 µM
TGI [11]: > 100 µM
TGI [49]: > 100 µM
TGI [13]: > 100 µM
TGI [14]: > 100 µM
TGI [15]: > 100 µM
TGI [17]: > 100 µM
TGI [18]: 47.6 µM
TGI [19]: > 100 µM
TGI [50]: > 100 µM
TGI [22]: > 100 µM
TGI [23]: > 100 µM
TGI [24]: > 100 µM
TGI [25]: > 100 µM
TGI [51]: 65.3 µM
TGI [26]: 77.3 µM
TGI [27]: > 100 µM
TGI [28]: > 100 µM
TGI [29]: > 100 µM
TGI [30]: > 100 µM
TGI [57]: > 100 µM
TGI [58]: > 100 µM
TGI [54]: 65.4 µM
TGI [33]: > 100 µM
TGI [34]: > 100 µM
TGI [35]: > 100 µM
TGI [38]: > 100 µM
TGI [39]: > 100 µM
TGI [40]: > 100 µM
TGI [41]: > 100 µM
TGI [42]: > 100 µM
TGI [43]: 87 µM
TGI [56]: > 100 µM
TGI [44]: > 100 µM
TGI [45]: > 100 µM

COc1ccc(C(O)C(c2ccc(OCc3ccccc3)cc2)c2ccc(OCc3ccccc3)cc2)cc1 (stereo unspecified)
TGI [1]: > 100 µM
TGI [2]: > 100 µM
TGI [46]: > 100 µM
TGI [3]: > 100 µM
TGI [4]: > 100 µM
TGI [5]: > 100 µM
TGI [6]: > 100 µM
TGI [7]: > 100 µM
TGI [8]: > 100 µM
TGI [9]: > 100 µM
TGI [10]: > 100 µM
TGI [48]: > 100 µM
TGI [11]: > 100 µM
TGI [49]: > 100 µM
TGI [13]: > 100 µM
TGI [14]: > 100 µM
TGI [15]: > 100 µM
TGI [16]: > 100 µM
TGI [17]: > 100 µM
TGI [18]: > 100 µM
TGI [19]: > 100 µM
TGI [50]: > 100 µM
TGI [20]: > 100 µM
TGI [22]: > 100 µM
TGI [23]: > 100 µM
TGI [24]: > 100 µM
TGI [25]: > 100 µM
TGI [51]: > 100 µM
TGI [26]: > 100 µM
TGI [52]: > 100 µM
TGI [27]: > 100 µM
TGI [28]: > 100 µM
TGI [29]: > 100 µM
TGI [30]: > 100 µM
TGI [57]: > 100 µM
TGI [53]: > 100 µM
TGI [31]: > 100 µM
TGI [58]: > 100 µM
TGI [32]: > 100 µM
TGI [33]: > 100 µM
TGI [34]: > 100 µM
TGI [35]: > 100 µM
TGI [36]: > 100 µM
TGI [37]: > 100 µM
TGI [38]: > 100 µM
TGI [39]: > 100 µM
TGI [41]: > 100 µM
TGI [55]: > 100 µM
TGI [42]: > 100 µM
TGI [43]: > 100 µM
TGI [56]: > 100 µM
TGI [44]: > 100 µM
TGI [45]: > 100 µM
